According to the kinase profiling compilation of Christmann-Franck et al. (2016):

Legend:
Experiment in all cases: KINOMEscan competition binding
Conditions in all cases: compound 10.0 µM
ACVR2B (human) = ACVR2B (human) (UniProt Q13705)
AURKB (human) = AURKB (human) (UniProt Q96GD4)
BMPR1A (human) = BMPR1A (human) (UniProt P36894)
CDKL2 (human) = CDKL2 (human) (UniProt Q92772)
CHEK1 (human) = CHEK1 (human) (UniProt O14757)
CIT (human) = CIT (human) (UniProt O14578)
CSNK1D (human) = CSNK1D (human) (UniProt P48730)
CSNK1D (human), sequence (P48730 whole entry, looked up): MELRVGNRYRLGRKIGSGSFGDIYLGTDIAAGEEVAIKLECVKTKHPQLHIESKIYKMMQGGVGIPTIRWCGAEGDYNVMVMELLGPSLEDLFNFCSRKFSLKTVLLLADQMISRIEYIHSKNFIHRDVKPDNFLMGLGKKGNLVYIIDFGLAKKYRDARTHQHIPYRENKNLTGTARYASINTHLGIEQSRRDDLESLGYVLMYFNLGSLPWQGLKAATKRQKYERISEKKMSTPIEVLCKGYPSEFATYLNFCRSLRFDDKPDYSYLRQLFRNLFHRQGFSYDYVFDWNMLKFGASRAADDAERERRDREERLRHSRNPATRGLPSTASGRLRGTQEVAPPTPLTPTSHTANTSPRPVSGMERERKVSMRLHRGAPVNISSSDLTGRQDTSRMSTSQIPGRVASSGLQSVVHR

CSNK2A1 (human) = CSNK2A1 (human) (UniProt P68400)
CaMK1 (human) = CaMK1 (human) (UniProt Q14012)
DCLK2 (human) = DCLK2 (human) (UniProt Q8N568)
EPHB2 (human) = EPHB2 (human) (UniProt P29323)
ERBB4 (human) = ERBB4 (human) (UniProt Q15303)
FLT3 (human) = FLT3 (human) (UniProt P36888)
FRK (human) = FRK (human) (UniProt P42685)
LATS1 (human) = LATS1 (human) (UniProt O95835)
LATS2 (human) = LATS2 (human) (UniProt Q9NRM7)
MAP3K1 (human) = MAP3K1 (human) (UniProt Q13233)
MAP3K5 (human) = MAP3K5 (human) (UniProt Q99683)
MAP3K5 (human), sequence (Q99683 whole entry, looked up): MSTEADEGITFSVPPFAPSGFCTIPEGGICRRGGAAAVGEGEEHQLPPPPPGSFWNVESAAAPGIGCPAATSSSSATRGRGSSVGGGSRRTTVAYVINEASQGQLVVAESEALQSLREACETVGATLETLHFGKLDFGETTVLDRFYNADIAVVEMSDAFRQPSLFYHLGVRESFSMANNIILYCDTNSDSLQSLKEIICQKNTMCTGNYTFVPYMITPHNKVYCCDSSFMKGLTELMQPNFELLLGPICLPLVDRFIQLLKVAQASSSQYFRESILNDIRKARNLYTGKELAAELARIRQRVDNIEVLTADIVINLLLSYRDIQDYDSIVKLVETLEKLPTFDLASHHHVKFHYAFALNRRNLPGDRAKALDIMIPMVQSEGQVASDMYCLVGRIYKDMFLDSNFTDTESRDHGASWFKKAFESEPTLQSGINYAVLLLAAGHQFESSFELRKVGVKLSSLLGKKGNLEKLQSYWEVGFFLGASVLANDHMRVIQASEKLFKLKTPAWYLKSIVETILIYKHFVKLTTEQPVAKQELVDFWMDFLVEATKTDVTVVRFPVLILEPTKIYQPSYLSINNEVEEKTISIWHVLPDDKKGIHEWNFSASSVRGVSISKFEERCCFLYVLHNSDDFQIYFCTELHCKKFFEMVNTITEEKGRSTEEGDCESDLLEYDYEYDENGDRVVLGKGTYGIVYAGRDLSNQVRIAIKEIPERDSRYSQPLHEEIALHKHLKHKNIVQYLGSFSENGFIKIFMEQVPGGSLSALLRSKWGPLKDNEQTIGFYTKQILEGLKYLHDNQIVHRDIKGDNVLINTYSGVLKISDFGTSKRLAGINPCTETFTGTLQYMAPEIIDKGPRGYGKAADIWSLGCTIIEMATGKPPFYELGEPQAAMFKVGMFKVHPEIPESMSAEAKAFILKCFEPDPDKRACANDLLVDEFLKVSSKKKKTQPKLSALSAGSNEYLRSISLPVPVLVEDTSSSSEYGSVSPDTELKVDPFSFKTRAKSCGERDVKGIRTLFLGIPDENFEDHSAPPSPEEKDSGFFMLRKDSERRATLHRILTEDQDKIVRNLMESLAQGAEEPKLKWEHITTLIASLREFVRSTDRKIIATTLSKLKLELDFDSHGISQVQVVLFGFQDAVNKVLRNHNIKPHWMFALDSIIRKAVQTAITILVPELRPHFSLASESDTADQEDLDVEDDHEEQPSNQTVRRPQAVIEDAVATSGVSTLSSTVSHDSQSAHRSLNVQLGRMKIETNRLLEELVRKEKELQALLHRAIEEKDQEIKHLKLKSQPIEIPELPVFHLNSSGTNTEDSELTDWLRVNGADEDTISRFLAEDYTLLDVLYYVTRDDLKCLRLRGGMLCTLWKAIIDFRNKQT

MAP4K4 (human) = MAP4K4 (human) (UniProt O95819)
MAP4K4 (human), sequence (O95819 whole entry, looked up): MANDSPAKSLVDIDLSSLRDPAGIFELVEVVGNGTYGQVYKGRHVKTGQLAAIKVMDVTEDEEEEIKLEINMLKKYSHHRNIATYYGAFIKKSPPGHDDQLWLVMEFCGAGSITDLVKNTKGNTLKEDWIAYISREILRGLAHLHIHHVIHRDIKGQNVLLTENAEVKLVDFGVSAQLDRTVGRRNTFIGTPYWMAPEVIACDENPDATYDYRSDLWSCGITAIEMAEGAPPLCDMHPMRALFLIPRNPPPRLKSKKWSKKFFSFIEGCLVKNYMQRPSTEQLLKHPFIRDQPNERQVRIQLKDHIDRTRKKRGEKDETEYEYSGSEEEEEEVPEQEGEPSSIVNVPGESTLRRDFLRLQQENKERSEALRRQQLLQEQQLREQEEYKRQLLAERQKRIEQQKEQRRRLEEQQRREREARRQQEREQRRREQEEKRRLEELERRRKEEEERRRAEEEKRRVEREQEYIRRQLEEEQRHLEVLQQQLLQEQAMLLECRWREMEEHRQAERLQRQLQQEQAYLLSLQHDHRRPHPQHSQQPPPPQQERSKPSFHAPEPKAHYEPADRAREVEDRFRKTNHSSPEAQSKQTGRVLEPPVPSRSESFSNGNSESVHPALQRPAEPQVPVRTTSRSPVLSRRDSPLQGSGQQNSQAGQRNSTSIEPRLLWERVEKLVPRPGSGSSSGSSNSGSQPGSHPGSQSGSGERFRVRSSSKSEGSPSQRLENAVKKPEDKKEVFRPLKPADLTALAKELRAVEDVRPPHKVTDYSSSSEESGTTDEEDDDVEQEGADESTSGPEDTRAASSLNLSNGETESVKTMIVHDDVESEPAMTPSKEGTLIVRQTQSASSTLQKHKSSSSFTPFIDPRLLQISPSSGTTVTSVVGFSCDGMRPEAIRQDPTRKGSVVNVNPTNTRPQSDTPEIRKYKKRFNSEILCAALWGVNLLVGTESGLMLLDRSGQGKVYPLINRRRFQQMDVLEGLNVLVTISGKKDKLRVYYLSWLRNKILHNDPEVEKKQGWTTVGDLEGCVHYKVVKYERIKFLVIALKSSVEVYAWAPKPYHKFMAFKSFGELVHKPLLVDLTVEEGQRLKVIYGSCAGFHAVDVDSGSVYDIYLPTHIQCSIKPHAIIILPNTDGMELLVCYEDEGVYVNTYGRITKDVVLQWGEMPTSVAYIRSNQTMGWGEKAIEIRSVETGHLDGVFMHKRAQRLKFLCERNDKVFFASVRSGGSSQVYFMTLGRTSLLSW

MAPKAPK5 (human) = MAPKAPK5 (human) (UniProt Q8IW41)
[1] = system: MET (human), P08581 [Y1235D]
MYLK (human) = MYLK (human) (UniProt Q15746)
MYLK (human), sequence (Q15746 whole entry, looked up): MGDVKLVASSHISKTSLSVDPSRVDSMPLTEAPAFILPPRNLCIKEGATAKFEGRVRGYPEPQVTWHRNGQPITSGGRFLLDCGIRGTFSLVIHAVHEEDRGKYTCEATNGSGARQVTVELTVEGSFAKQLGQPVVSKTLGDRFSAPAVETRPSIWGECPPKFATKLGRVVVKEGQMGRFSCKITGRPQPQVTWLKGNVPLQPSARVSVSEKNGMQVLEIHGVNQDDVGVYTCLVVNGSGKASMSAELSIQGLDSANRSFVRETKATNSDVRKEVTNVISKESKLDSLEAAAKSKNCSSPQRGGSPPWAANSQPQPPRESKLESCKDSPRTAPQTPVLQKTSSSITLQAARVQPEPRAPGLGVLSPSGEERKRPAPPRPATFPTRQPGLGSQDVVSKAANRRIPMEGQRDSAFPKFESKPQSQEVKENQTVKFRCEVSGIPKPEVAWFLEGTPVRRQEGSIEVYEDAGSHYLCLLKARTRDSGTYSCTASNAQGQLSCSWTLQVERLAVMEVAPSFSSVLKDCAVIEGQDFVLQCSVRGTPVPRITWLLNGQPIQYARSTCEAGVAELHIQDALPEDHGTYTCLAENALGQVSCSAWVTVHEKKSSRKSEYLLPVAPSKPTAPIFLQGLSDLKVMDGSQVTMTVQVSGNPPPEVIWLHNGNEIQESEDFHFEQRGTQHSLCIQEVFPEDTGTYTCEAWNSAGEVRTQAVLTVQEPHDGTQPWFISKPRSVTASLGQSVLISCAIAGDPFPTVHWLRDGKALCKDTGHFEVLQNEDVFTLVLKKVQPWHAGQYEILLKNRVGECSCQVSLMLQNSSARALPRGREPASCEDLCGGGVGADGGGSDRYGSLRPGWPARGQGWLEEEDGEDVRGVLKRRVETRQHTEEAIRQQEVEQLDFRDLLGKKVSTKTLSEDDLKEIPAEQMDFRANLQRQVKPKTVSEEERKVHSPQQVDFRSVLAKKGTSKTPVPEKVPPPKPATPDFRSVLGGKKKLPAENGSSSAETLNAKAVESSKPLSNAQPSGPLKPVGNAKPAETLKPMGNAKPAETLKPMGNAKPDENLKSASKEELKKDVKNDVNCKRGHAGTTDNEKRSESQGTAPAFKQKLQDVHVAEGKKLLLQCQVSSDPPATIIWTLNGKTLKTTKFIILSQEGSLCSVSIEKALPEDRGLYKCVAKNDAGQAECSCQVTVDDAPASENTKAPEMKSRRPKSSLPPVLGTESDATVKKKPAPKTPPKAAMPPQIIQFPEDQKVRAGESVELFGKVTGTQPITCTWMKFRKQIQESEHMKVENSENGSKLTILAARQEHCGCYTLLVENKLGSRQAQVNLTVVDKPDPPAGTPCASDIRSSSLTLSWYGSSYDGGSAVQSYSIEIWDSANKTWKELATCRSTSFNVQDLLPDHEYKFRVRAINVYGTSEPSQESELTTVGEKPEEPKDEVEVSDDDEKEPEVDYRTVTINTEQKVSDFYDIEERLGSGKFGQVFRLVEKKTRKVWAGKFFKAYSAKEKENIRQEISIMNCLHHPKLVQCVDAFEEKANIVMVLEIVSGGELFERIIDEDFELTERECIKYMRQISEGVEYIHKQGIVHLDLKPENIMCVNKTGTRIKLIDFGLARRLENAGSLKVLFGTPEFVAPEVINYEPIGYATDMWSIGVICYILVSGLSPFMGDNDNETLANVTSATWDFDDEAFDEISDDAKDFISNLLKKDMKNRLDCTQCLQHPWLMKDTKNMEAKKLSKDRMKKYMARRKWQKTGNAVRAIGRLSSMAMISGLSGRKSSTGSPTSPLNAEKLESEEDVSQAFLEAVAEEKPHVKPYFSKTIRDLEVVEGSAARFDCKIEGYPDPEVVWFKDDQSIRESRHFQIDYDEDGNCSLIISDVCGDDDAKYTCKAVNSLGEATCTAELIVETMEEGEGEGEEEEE

NEK3 (human) = NEK3 (human) (UniProt P51956)
PDGFRA (human) = PDGFRA (human) (UniProt P16234)
PIM2 (human) = PIM2 (human) (UniProt Q9P1W9)
PKN2 (human) = PKN2 (human) (UniProt Q16513)
PLK3 (human) = PLK3 (human) (UniProt Q9H4B4)
PRKAA1 (human) = PRKAA1 (human) (UniProt Q13131)
PRPF4B (human) = PRPF4B (human) (UniProt Q13523)
RPS6KA6 KD2 (human) = RPS6KA6 KD2 (human) (UniProt Q9UK32)
SGK110 (human) = SGK110 (human) (UniProt P0C264)
SRMS (human) = SRMS (human) (UniProt Q9H3Y6)
SRPK3 (human) = SRPK3 (human) (UniProt Q9UPE1)
STK17B (human) = STK17B (human) (UniProt O94768)
STK33 (human) = STK33 (human) (UniProt Q9BYT3)
STK39 (human) = STK39 (human) (UniProt Q9UEW8)
SYK (human) = SYK (human) (UniProt P43405)
TGFBR2 (human) = TGFBR2 (human) (UniProt P37173)
TTK (human) = TTK (human) (UniProt P33981)
[2] = biological target: TYK2 JH2 pseudokinase (human) (UniProt P29597)

SMILES	kinase still bound, per cent of control (ACVR2B (human)) [%]	kinase still bound, per cent of control (AURKB (human)) [%]	kinase still bound, per cent of control (BMPR1A (human)) [%]	kinase still bound, per cent of control (CDKL2 (human)) [%]	kinase still bound, per cent of control (CHEK1 (human)) [%]	kinase still bound, per cent of control (CIT (human)) [%]	kinase still bound, per cent of control (CSNK1D (human)) [%]	kinase still bound, per cent of control (CSNK2A1 (human)) [%]	kinase still bound, per cent of control (CaMK1 (human)) [%]	kinase still bound, per cent of control (DCLK2 (human)) [%]	kinase still bound, per cent of control (EPHB2 (human)) [%]	kinase still bound, per cent of control (ERBB4 (human)) [%]	kinase still bound, per cent of control (FLT3 (human)) [%]	kinase still bound, per cent of control (FRK (human)) [%]	kinase still bound, per cent of control (LATS1 (human)) [%]	kinase still bound, per cent of control (LATS2 (human)) [%]	kinase still bound, per cent of control (MAP3K1 (human)) [%]	kinase still bound, per cent of control (MAP3K5 (human)) [%]	kinase still bound, per cent of control (MAP4K4 (human)) [%]	kinase still bound, per cent of control (MAPKAPK5 (human)) [%]	further results
O=C(Nc1cccc(Nc2ncc(Br)c(NCCc3cnc[nH]3)n2)c1)N1CCCC1	4.9	0	0.8	4.7	0.4	0.75	73	0.3	11	70	100	56	0	46	21	0	34	24	2.4	28	kinase still bound, per cent of control [1]: 2.4%; kinase still bound, per cent of control (MYLK (human)): 34%; kinase still bound, per cent of control (NEK3 (human)): 6.8%; kinase still bound, per cent of control (PDGFRA (human)): 0.1%; kinase still bound, per cent of control (PIM2 (human)): 100%; kinase still bound, per cent of control (PKN2 (human)): 4.6%; kinase still bound, per cent of control (PLK3 (human)): 20%; kinase still bound, per cent of control (PRKAA1 (human)): 0.35%; kinase still bound, per cent of control (PRPF4B (human)): 5.3%; kinase still bound, per cent of control (RPS6KA6 KD2 (human)): 10%; kinase still bound, per cent of control (SGK110 (human)): 0.95%; kinase still bound, per cent of control (SRMS (human)): 37%; kinase still bound, per cent of control (SRPK3 (human)): 6.2%; kinase still bound, per cent of control (STK17B (human)): 2.4%; kinase still bound, per cent of control (STK33 (human)): 0.8%; kinase still bound, per cent of control (STK39 (human)): 63%; kinase still bound, per cent of control (SYK (human)): 0.95%; kinase still bound, per cent of control (TGFBR2 (human)): 100%; kinase still bound, per cent of control (TTK (human)): 5%; kinase still bound, per cent of control [2]: 0%
C=CC(=O)Nc1cc(-n2c(=O)ccc3cnc4ccc(-c5cn[nH]c5)cc4c32)ccc1C	21	97	12	17	100	42	47	4.6	96	100	100	22	6.2	99	100	53	97	100	60	78	kinase still bound, per cent of control [1]: 100%; kinase still bound, per cent of control (MYLK (human)): 70%; kinase still bound, per cent of control (NEK3 (human)): 77%; kinase still bound, per cent of control (PDGFRA (human)): 21%; kinase still bound, per cent of control (PIM2 (human)): 69%; kinase still bound, per cent of control (PKN2 (human)): 82%; kinase still bound, per cent of control (PLK3 (human)): 99%; kinase still bound, per cent of control (PRKAA1 (human)): 96%; kinase still bound, per cent of control (PRPF4B (human)): 84%; kinase still bound, per cent of control (RPS6KA6 KD2 (human)): 67%; kinase still bound, per cent of control (SGK110 (human)): 100%; kinase still bound, per cent of control (SRMS (human)): 75%; kinase still bound, per cent of control (SRPK3 (human)): 68%; kinase still bound, per cent of control (STK17B (human)): 100%; kinase still bound, per cent of control (STK33 (human)): 100%; kinase still bound, per cent of control (STK39 (human)): 64%; kinase still bound, per cent of control (SYK (human)): 100%; kinase still bound, per cent of control (TGFBR2 (human)): 82%; kinase still bound, per cent of control (TTK (human)): 21%; kinase still bound, per cent of control [2]: 36%
COc1ccc(N(C(=O)Oc2c(C)cccc2C)c2ccnc(Nc3ccc(N4CCN(C)CC4)cc3)n2)c(OC)c1	1.8	18	0.1	0.5	100	3.8	82	66	83	44	0	0.75	2.3	0	78	70	32	100	3.7	100	kinase still bound, per cent of control [1]: 1.6%; kinase still bound, per cent of control (MYLK (human)): 100%; kinase still bound, per cent of control (NEK3 (human)): 100%; kinase still bound, per cent of control (PDGFRA (human)): 9.9%; kinase still bound, per cent of control (PIM2 (human)): 100%; kinase still bound, per cent of control (PKN2 (human)): 19%; kinase still bound, per cent of control (PLK3 (human)): 100%; kinase still bound, per cent of control (PRKAA1 (human)): 23%; kinase still bound, per cent of control (PRPF4B (human)): 55%; kinase still bound, per cent of control (RPS6KA6 KD2 (human)): 67%; kinase still bound, per cent of control (SGK110 (human)): 44%; kinase still bound, per cent of control (SRMS (human)): 8.6%; kinase still bound, per cent of control (SRPK3 (human)): 11%; kinase still bound, per cent of control (STK17B (human)): 100%; kinase still bound, per cent of control (STK33 (human)): 28%; kinase still bound, per cent of control (STK39 (human)): 100%; kinase still bound, per cent of control (SYK (human)): 1.4%; kinase still bound, per cent of control (TGFBR2 (human)): 16%; kinase still bound, per cent of control (TTK (human)): 42%; kinase still bound, per cent of control [2]: 100%
